According to patent US11154569B2, “Ruthenium μ-nitrido complexes and their use as calcium uptake inhibitors” (CORNELL UNIVERSITY, priority 2018, dated 2021):

Columns and labels:
[1] = target: T1, mitochondrial calcium uniporter (MCU) (Homo sapiens, UniProt Q8NE86); assay: MCU-mediated Ca2+ uptake and ΔΨm in permeabilized HEK293T cells; format: cell-based; design: endogenous in cells; host or cells: HEK293T (digitonin-permeabilized); conditions: 5 μM compound, 20 μM Ca2+ bolus
T1 sequence (Q8NE86 51-351): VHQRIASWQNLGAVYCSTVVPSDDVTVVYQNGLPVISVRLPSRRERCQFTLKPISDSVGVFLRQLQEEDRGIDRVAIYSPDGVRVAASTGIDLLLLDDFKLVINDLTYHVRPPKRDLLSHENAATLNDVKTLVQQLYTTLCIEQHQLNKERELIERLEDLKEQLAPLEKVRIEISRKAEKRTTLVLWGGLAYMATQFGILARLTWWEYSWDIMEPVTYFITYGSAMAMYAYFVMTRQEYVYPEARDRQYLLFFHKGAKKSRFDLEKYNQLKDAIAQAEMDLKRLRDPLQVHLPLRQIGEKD
T1 sequence (Q9H4I9 48-107 partner limits assumed): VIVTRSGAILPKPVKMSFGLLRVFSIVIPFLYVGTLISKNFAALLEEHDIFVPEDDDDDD
Protocol: An equal number of IHEK293T (6×10^6 cells) were washed in Ca^2+ free PBS, pH 7.4, resuspended and permeabilized with 40 μg/ml digitonin in 1.5 ml of intracellular medium (ICM) composed of 120 mM KCl, 10 mM NaCl, 1 mM K—H2PO4, 20 mM HE PES-Tris, pH 7.2 and 2 μM thapsigargin to block the SERCA pump. All measurements were performed in the presence of 2 mM succinate. The permeabilized cells were loaded with JC-1 (800 nM) and Fura2-FF (0.5 μM), respectively. Fluorescence was monitored in a multi-wavelength excitation dual-wavelength emission fluorimeter. [Ca^2+]out is represented as the excitation ratio (340 nm/380 nm) of Fura2-FF/FA fluorescence and ΔΨm as the ratio of the fluorescence of J-aggregate (570 nm excitation/595 nm emission) and monomer (490 nm excitation/535 nm emission) forms of JC-1. A series of extra-mitochondrial Ca^2+ bolus (20 μM) was added and mitochondrial uncoupler, CCCP (2 jμM), were added at the indicated time points. All of the experiments were performed at 37° C. with constant stirring.
With the new nitrido-bridged ruthenium compounds C-2 and C-3 prepared, MCU-inhibitory properties of these compounds were evaluated and their activities compared to C-1, the oxo-bridged Ru360 analogue of the conventional art (S. R. Nathan et al., Inorg. Chem. 2017, 56, 3123-3126 and S. R. Nathan et al., J. Vis. Exp. 2017, 56527). The cytotoxicity of the complexes in HEK293 cells was first measured using the colorimetric thiazolyl blue tetrazolium bromide (MTT) assay, as well known in the art. […] To measure the effect of these compounds on MCU activity, permeabilized HEK293T cells were treated with commercially available Ru360, C-1, C-2, or C-3 (5 jμM) 200 seconds prior to the delivery of a 20 μM bolus of Ca^2+ in the presence of 2 mM succinate as an energy source and the sarco/endoplasmic reticulum Ca^2+-ATPase (SERCA) pump blocker thapsigargin to prevent ER Ca^2+ uptake (S. Shanmughapriya et al., Sci. Signal. 2015, 8, ra23).
FIGS. 2A-2C are graphs showing changes in mitochondrial membrane potential (ΔΨm, JC-1, top panel) and extramitochondrial Ca^2+([Ca^2+]out) clearance (Fura-2 FF, bottom panel) in digitonin permeabilized HEK293T cells in response to 20 μM of Ca^2+ after treatment with 5 μM of C-1 (FIG. 2A), C-2 (FIG. 2B), and C-3 (FIG. 2C). The transient drop in ΔΨm in control cells upon Ca^2+ addition indicates accumulation of Ca^2+ in the mitochondrial matrix. FIG. 2D is a graph quantifying the rate of [Ca^2+] uptake as a function of decrease in [Ca^2+]out after a […] Ca^2+ pulse. […] Additionally, ΔΨm was monitored using 5,5′,6,6′-tetrachloro-1,1′,3,3′-tetraethylbenzimidazolylcarbocyanine iodide (JC-1) dye (M. Reen et al., Biochemistry 1991, 30, 4480-4486).
Having identified (C-2 as a cell-permeable MCU inhibitor, a dose-response analysis was performed to determine the potency of C-2 towards mCa^2+ uptake inhibition of C-2 in a permeabilized cell system. Permeabilized IHEK293T cells were treated with C-2 (1 nM to 1 μM). A 20 μM Ca^2+ bolus was added after baseline recording, and the extra-mitochondrial calcium cleared was used as an indicator for MCU-mediated mCa^2+ uptake using Fura-2FF. The results are shown in FIGS. 4A-4C. FIG. 4A includes representative traces of [Ca^2+]out clearance in permeabilized HEK293T cells challenged with a range of C-2 concentrations (1, 2, 3, 5, and 10 nM). FIG. 4B is a graph comparing MCU-inhibitory effect by Ru360 (30 nM) and C-2 (2 and 10 nM) at lower concentrations. FIG. 4C is a graph showing calculation of dose-dependent IC50 inhibition by C-2 and Ru360. Data represent mean±SEM (n=3-6), n.s.=not significant. […] Furthermore, complete inhibition of mCa^2+ uptake was observed when cells were dosed with 10 nM C-2 while 500 nM of Ru360 was required for the same response (FIGS. 4A and 4B).

[2] = target: T1, mitochondrial calcium uniporter (MCU); assay: Cytoplasmic and mitochondrial Ca2+ dynamics in intact HeLa cells after histamine; format: cell-based; design: 30 min) and Rhod-2 AM; endogenous in cells; host or cells: HeLa (intact; some experiments with transfected Ca2+ sensors R-GECO1 and GCamP6-mt, MCU itself not transfected); conditions: intact HeLa cells, 50 μM for 30 minutes, histamine 100 μM; Rhod-2 AM and GCamP6-mt
Protocol: HeLa cells were loaded with Fluo-4-AM (5 μM; 30 min) and Rhod-2 AM (2 μM; 50 min) in extracellular medium as previously described (F. Perocchi et al, Nature 2010, 467, 291-296). Coverslips were mounted in an open perfusion microincubator at 37° C. and imaged. After 1 minute of baseline recording, histamine (100 μM) was added, and confocal images were recorded every 3 seconds at 488 and 561 nm excitation using a 40× oil objective. Images were analyzed and quantified by using ImageJ (NIH).
HeLa cells were transiently transfected with genetically encoded cytosolic and mitochondrial targeted Ca^2+ sensors R-GECO1 and GCamP6-mt plasmids. After 48 hours, the transfected cells were treated with MCU inhibitors (C1, C-2, and C-3; 50 μM). After 1 minute of baseline recording, histamine (100 μM) was added, and the change of R-GECO1 and GCamP6-mt fluorescence was measured with 488-nm and 561-nm excitation on a confocal microscope equipped with a 40× oil objective. Images were analyzed and quantified by using ImageJ (NIH).
Encouraged by the high cell permeability and mitochondrial selectivity of C-2, the capability of this complex to inhibit MCU-mediated mCa^2+ uptake in intact, non-permeabilized cells was investigated Briefly, HeLa cells were loaded with the cytosolic calcium concentration ([Ca^2+]) indicator Fluo-4 AM and the mitochondrial calcium concentration ([…]) indicator Rhod-2 AM in the presence or absence of C-1, C-2, and C-3 (50 μM). Cells were stimulated with the GPCR agonist histamine (100 μM) to rapidly elevate cCa^2+ levels to induce mCa^2+ uptake (Z. Dong et al., Mol. Cell 2017, 65, 1014-1028).
FIGS. 3A and 3B are graphs showing results of cytosolic ([Ca^2+]e, Fluo-4 AM) and mitochondrial ([Ca^2+]m, Rhod-2 AM) calcium transients in HeLa cells after treatment with histamine (100 μM) that were pretreated with or without C-1, C-2, or C-3 (50 μM) for 30 minutes. FIGS. 3C and 3D are graphs showing results of cytosolic ([Ca^2+]e, R-GECO) and mitochondrial ([Ca^2+]m, GCamP6-mt)) calcium transients in HeLa cells after treatment with histamine (100 μM) that were pretreated with or without C-1, C-2, or C-3 (50 μM) for 30 minutes. HeLa cells were co-transfected with R-GECO1 and GCamP6-mt. 48 hours post-transfection. Data are represented as mean±SEM. *p<0.05. n=3-6.

[Ru2(μ-O)(NH3)8(H2O)2]^+5 [C-1, reference compound]
MCU mediated mCa2+ uptake ([1]; digitonin permeabilized HEK293T cells): significant reduction in MCU mediated mCa^2+ uptake | transient ΔΨm loss (JC-1) ([1]; permeabilized HEK293T cells): no transient A m loss | inhibition of MCU-mediated mCa2+ uptake in intact cells [2]: did not show appreciable inhibition of mCa^2+ uptake
